# Test results from the METLIN SMRT retention time set (Domingo-Almenara et al. 2019).
# Test: gradient 5% acetonitrile 3 min, to 50% in 2 min, to 85% in 15 min, held 3 min, 100 µL/min
# Settings: column: Zorbax Extend-C18 2.1 x 50 mm; eluents: water / acetonitrile, 0.1% formic acid
# Procedure, shortened: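 Values are retention times taken from adduct peaks that software picked and an analyst inspected. The pure standards were run as mixtures of ~100 molecules on HPLC linked to a quadrupole time-of-flight mass spectrometer, in positive and negative ionization mode. A Zorbax Extend-C18 column (2.1 × 50 mm, 1.8 μm) was used at 100 μL/min with water and acetonitrile, each including 0.1% formic acid.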
row,Structure (SMILES),RP-LC retention time [s]
1,Cn1c(=O)c(N2CCC(NC(=O)Nc3ccc(F)cc3F)CC2)nc2ccccc21,888
2,Cc1c(F)cccc1NC(=O)N(C)CC1CCOC1 (stereo not given),745
3,CN(C)C1CCc2[nH]c3c(F)cc(F)cc3c2C1 (stereo not given),685
4,Cc1ccc(S(=O)(=O)Nc2ccc3c(c2)CCC(=O)N3CC(C)C)cc1Cl,994
5,O=C(CCCn1c(=O)c2cccn2c2ccc(F)cc21)N1CCN(C(=O)c2ccco2)CC1,745
6,CCCCCC(=O)N1CCCC1,805
7,O=C(NCc1ccccn1)c1ccc2c(c1)N(C(=O)c1ccc(F)cc1)CC2,653
8,CCc1ccc(N2CC(c3noc(-c4ccc(C)cc4)n3)CC2=O)cc1 (stereo not given),1170
9,CN1c2cc(C(=O)N3CCN(c4ccccn4)CC3)ccc2C(=O)N2CCCCC21 (stereo not given),588
10,CCN1c2cc(F)ccc2C(=O)NC12CCN(C(=O)c1cccc(OC)c1)CC2,756
11,C=CCn1c(=O)c2ccccc2n(Cc2nc(-c3cc(OC)c(OC)c(OC)c3)no2)c1=O,948
12,CC(C)CCN1CCc2[nH]nc(C(=O)N(C)C)c2C1,575
13,O=C(c1cc(-c2ccncc2)n[nH]1)N1CCC(C(=O)N2CCN(c3ccc(Cl)cc3)CC2)CC1,672
14,CC(C)CCC(=O)N1CCC(N2C[C@H](O)C[C@H]2C(N)=O)CC1,571
15,O=C(Cn1ccc2ccc(N3CCCCCC3)nc21)N1CCC(N2CCCCC2)CC1,709
16,CCn1cnc(S(=O)(=O)N2CCC(C(=O)NCc3ccccc3OC)CC2)c1,902
17,COc1ccccc1C(=O)N1CCCC1c1cc(C)on1 (stereo not given),723
18,Cc1cccc(-c2noc(-c3nn(CC(=O)NC(C)C)c4ccccc34)n2)c1,1090
19,COC(=O)c1cc(S(=O)(=O)N2CCCC2C(=O)NCc2ccccc2Cl)cn1C (stereo not given),845
20,O=S(=O)(Cc1ccccc1)N1CCC2(CCCCO2)CC1,868
21,O=C(NCc1nc2ccccc2c(=O)n1-c1ccc(F)cc1)Nc1ccc(Cl)c(C(F)(F)F)c1,1040
22,CCc1nc2cc(N3CCC(C(=O)NCC4CCCO4)CC3)cnc2nc1CC (stereo not given),670
23,Cc1ccccc1-c1noc(N2CCC(C(=O)N3CCN(C4CCCCC4)CC3)CC2)n1,705

row,Structure (SMILES),RP-LC retention time [s]
1,CC(=O)Nc1nsc(N2CCC(C(=O)NCc3ccc4c(c3)OCO4)CC2)n1,641
2,CCOC(=O)C1CCN(C(=O)C2CCCN(c3nc4cccnc4n(CC)c3=O)C2)CC1 (stereo not given),969
3,c1ccc(COCCc2noc(C3CCCCN3)n2)cc1 (stereo not given),622
4,COc1ccc(C(=O)N2CCN(c3nc(CN4CCOCC4)cs3)CC2)cc1,833
5,CC(C)N1CCn2cc(S(=O)(=O)Nc3ccc(Cl)cc3)cc2C1=O,805
6,Cc1cc2nn(CC(=O)Nc3ccc(F)cc3)c(=O)n2c(N2CCCC2)n1,739
7,COc1cccc(C(=O)N2C[C@@H]3C[C@H](NC(=O)c4ccccc4)[C@H]2C3)c1OC,682
8,CC(=O)Nc1ccc(OCC(=O)NC2CCN(Cc3ccccc3)CC2)nc1,572
9,CS(=O)(=O)c1cccc(C(=O)Nc2nnc(-c3ccno3)o2)c1,603
10,Cc1ccc(S(=O)(=O)N2CCC(n3cnnc3C3CC3)CC2)cc1Cl,809
11,O=C(Nc1cccc(C(F)(F)F)c1)c1cc2ncc(Br)cn2n1,982
12,CCN(CC)CCNC(=O)c1ccc(CS(=O)(=O)c2ccc(Br)cc2)o1,634
13,CCOC(=O)C(=O)Nc1ccc(-c2nc(-c3ccc(C)cc3C)co2)cc1,1170
14,Cc1scc(CN2CCN(c3ccccn3)CC2)c1C,578
15,O=S(=O)(c1ccc(F)cc1)N1CCc2nc(-c3ccc(Cl)cc3)ncc2C1,1170
16,COc1cccc(NC(=O)c2cc(C)n3nccc3n2)c1,874
17,CC1CN=C2C=C(N3CCN(C(=O)Nc4ccc(Cl)cc4F)CC3)N=CN21 (stereo not given),630
18,CCCCN1C(=O)CN(S(=O)(=O)c2ccccc2)CC1(C)C(=O)NCc1ccc(C)cc1 (stereo not given),805
19,COC(=O)CCCC(=O)Nc1ccc2[nH]c(=O)oc2c1,608
20,Cc1nnc(CNC(=O)CCc2c[nH]c3ccccc23)o1,622
21,Cc1ccc(S(=O)(=O)Nc2ccc(Nc3ccc(-n4cccn4)nn3)cc2)c(C)c1,829
22,COc1ccc(OC)c(-c2csc(-c3nnn(-c4cccc(Cl)c4)c3N)n2)c1,1180
